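A five-concentration, 48-hour dose response in 96-well plates underlies each endpoint, interpolated linearly between surrounding concentrations. Abbreviation: GI50, concentration required for 50% inhibition of growth.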 Calls of active or inactive are those of the source. No stated cut-off is given here; in the data, active = GI50 up to about 1.1 µM and inactive = higher.
Legend:
Test in all cases: inhibition of tumour cell growth, NCI panel, 48 h
SK-MEL-28 = tested on: SK-MEL-28
Malme-3M = tested on: Malme-3M
MDA-N = tested on: MDA-N
SNB-78 = tested on: SNB-78
SF-295 = tested on: SF-295
SN12C = tested on: SN12C
SNB-75 = tested on: SNB-75
HCC 2998 = tested on: HCC 2998
UACC-257 = tested on: UACC-257
HOP-92 = tested on: HOP-92
RXF 393 = tested on: RXF 393
SK-OV-3 = tested on: SK-OV-3
UO-31 = tested on: UO-31
SF-268 = tested on: SF-268
OVCAR-4 = tested on: OVCAR-4
TK-10 = tested on: TK-10
NCI/ADR-RES = tested on: NCI/ADR-RES
DU-145 = tested on: DU-145
RPMI-8226 = tested on: RPMI-8226
T47D = tested on: T47D
NCI-H226 = tested on: NCI-H226
IGROV-1 = tested on: IGROV-1
HCT-15 = tested on: HCT-15
HOP-62 = tested on: HOP-62
U-251 = tested on: U-251
UACC-62 = tested on: UACC-62
OVCAR-3 = tested on: OVCAR-3
SW-620 = tested on: SW-620
EKVX = tested on: EKVX
SK-MEL-2 = tested on: SK-MEL-2
BT-549 = tested on: BT-549
NCI-H23 = tested on: NCI-H23
DMS-114 = tested on: DMS-114
SK-MEL-5 = tested on: SK-MEL-5
SNB-19 = tested on: SNB-19
KM12 = tested on: KM12
NCI-H460 = tested on: NCI-H460
786-0 = tested on: 786-0
HL-60 = tested on: HL-60
MDA-MB-231 = tested on: MDA-MB-231
ACHN = tested on: ACHN
M19-MEL = tested on: M19-MEL
NCI-H522 = tested on: NCI-H522
MCF7 = tested on: MCF7
HOP-18 = tested on: HOP-18
COLO 205 = tested on: COLO 205
DLD-1 = tested on: DLD-1
DMS-273 = tested on: DMS-273
MOLT-4 = tested on: MOLT-4
HT-29 = tested on: HT-29
LXFL 529 = tested on: LXFL 529
XF498 = tested on: XF498
HCT-116 = tested on: HCT-116
OVCAR-5 = tested on: OVCAR-5
K562 = tested on: K562
MDA-MB-435 = tested on: MDA-MB-435
A549 = tested on: A549
M14 = tested on: M14
Hs-578T = tested on: Hs-578T
KM-20L2 = tested on: KM-20L2
SF-539 = tested on: SF-539
CCRF-CEM = tested on: CCRF-CEM
LOX IMVI = tested on: LOX IMVI
A498 = tested on: A498
OVCAR-8 = tested on: OVCAR-8
CAKI-1 = tested on: CAKI-1
PC-3 = tested on: PC-3
RXF 631 = tested on: RXF 631
SR = tested on: SR

## CCN(CC)Cc1c(/C=C\c2cc(OC)c(OC)c(OC)c2)ccc(OC)c1O
SK-MEL-28
  GI50: 15 µM (inactive)
Malme-3M
  GI50: 3.23 µM (inactive)
MDA-N
  GI50: 0.387 µM (active)
SNB-78
  GI50: 4.17 µM (inactive)
SF-295
  GI50: 2.03 µM (inactive)
SN12C
  GI50: 5.3 µM (inactive)
SNB-75
  GI50: 1.84 µM (inactive)
HCC 2998
  GI50: 3.73 µM (inactive)
UACC-257
  GI50: 16.8 µM (inactive)
HOP-92
  GI50: 8.87 µM (inactive)
RXF 393
  GI50: 2.04 µM (inactive)
SK-OV-3
  GI50: 2.12 µM (inactive)
UO-31
  GI50: 6.14 µM (inactive)
SF-268
  GI50: 5.21 µM (inactive)
OVCAR-4
  GI50: 12.3 µM (inactive)
TK-10
  GI50: 9.4 µM (inactive)
NCI/ADR-RES
  GI50: 2.16 µM (inactive)
DU-145
  GI50: 3.72 µM (inactive)
RPMI-8226
  GI50: 3 µM (inactive)
T47D
  GI50: > 100 µM (inactive)
NCI-H226
  GI50: 3.67 µM (inactive)
IGROV-1
  GI50: 4.2 µM (inactive)
HCT-15
  GI50: 2.71 µM
HOP-62
  GI50: 5.02 µM (inactive)
U-251
  GI50: 2.87 µM (inactive)
UACC-62
  GI50: 2.43 µM (inactive)
OVCAR-3
  GI50: 2.08 µM (inactive)
SW-620
  GI50: 2.77 µM (inactive)
EKVX
  GI50: 6.1 µM (inactive)
SK-MEL-2
  GI50: 6.62 µM (inactive)
BT-549
  GI50: 6.01 µM (inactive)
NCI-H23
  GI50: 2.97 µM (inactive)
DMS-114
  GI50: 2.23 µM (inactive)
SK-MEL-5
  GI50: 2.68 µM (inactive)
SNB-19
  GI50: 10.3 µM (inactive)
KM12
  GI50: 1.69 µM (inactive)
NCI-H460
  GI50: 3.48 µM (inactive)
786-0
  GI50: 3.83 µM (inactive)
HL-60
  GI50: 3.85 µM (inactive)
MDA-MB-231
  GI50: 4.28 µM (inactive)
ACHN
  GI50: 8.59 µM (inactive)
M19-MEL
  GI50: 3.22 µM (inactive)
NCI-H522
  GI50: 1.87 µM (inactive)
MCF7
  GI50: 3.17 µM (inactive)
HOP-18
  GI50: > 100 µM (inactive)
COLO 205
  GI50: 2.45 µM (inactive)
DLD-1
  GI50: 4.09 µM (inactive)
DMS-273
  GI50: 2.2 µM (inactive)
MOLT-4
  GI50: 15.3 µM (inactive)
HT-29
  GI50: 2.76 µM (inactive)
LXFL 529
  GI50: 5.53 µM (inactive)
XF498
  GI50: 4.08 µM (inactive)
HCT-116
  GI50: 3.33 µM (inactive)
OVCAR-5
  GI50: 9.48 µM (inactive)
K562
  GI50: 3.27 µM (inactive)
MDA-MB-435
  GI50: 0.264 µM (active)
A549
  GI50: 4.25 µM (inactive)
M14
  GI50: 2.79 µM (inactive)
Hs-578T
  GI50: 2.08 µM (inactive)
KM-20L2
  GI50: 3.52 µM (inactive)
SF-539
  GI50: 2.29 µM (inactive)
CCRF-CEM
  GI50: 6.53 µM (inactive)
LOX IMVI
  GI50: 6.24 µM (inactive)
A498
  GI50: 6.22 µM (inactive)
OVCAR-8
  GI50: 4.1 µM (inactive)
CAKI-1
  GI50: 4.42 µM (inactive)
PC-3
  GI50: 1.8 µM (inactive)

## Fc1cccc(C2SCc3nc4ccccc4n32)c1 (stereo unspecified)
SK-MEL-28
  GI50: > 10 µM (inactive)
Malme-3M
  GI50: 36.4 µM (inactive)
SNB-78
  GI50: 30.6 µM (inactive)
SF-295
  GI50: 48.3 µM (inactive)
SN12C
  GI50: 50.5 µM (inactive)
SNB-75
  GI50: 36.4 µM (inactive)
RXF 631
  GI50: 32.7 µM (inactive)
HCC 2998
  GI50: 55.7 µM (inactive)
UACC-257
  GI50: 17.6 µM (inactive)
HOP-92
  GI50: 12.5 µM (inactive)
RXF 393
  GI50: > 10 µM (inactive)
SK-OV-3
  GI50: 50.8 µM (inactive)
UO-31
  GI50: 33.8 µM (inactive)
SF-268
  GI50: 75.3 µM (inactive)
TK-10
  GI50: > 10 µM (inactive)
RPMI-8226
  GI50: 23.5 µM (inactive)
SR
  GI50: 35.6 µM (inactive)
NCI-H226
  GI50: 41.1 µM (inactive)
IGROV-1
  GI50: 39.6 µM (inactive)
UACC-62
  GI50: 40.1 µM (inactive)
OVCAR-3
  GI50: 36.2 µM (inactive)
SW-620
  GI50: 54.8 µM (inactive)
EKVX
  GI50: 32.4 µM (inactive)
SK-MEL-2
  GI50: 42.3 µM (inactive)
NCI-H23
  GI50: 19.6 µM (inactive)
DMS-114
  GI50: 26.3 µM (inactive)
SK-MEL-5
  GI50: 12.7 µM (inactive)
SNB-19
  GI50: 75.5 µM (inactive)
KM12
  GI50: 39.1 µM (inactive)
NCI-H460
  GI50: 39.6 µM (inactive)
786-0
  GI50: > 100 µM (inactive)
HL-60
  GI50: 11 µM (inactive)
ACHN
  GI50: 24.4 µM (inactive)
M19-MEL
  GI50: 51.4 µM (inactive)
NCI-H522
  GI50: 20.2 µM (inactive)
COLO 205
  GI50: 71.4 µM (inactive)
DLD-1
  GI50: 43.8 µM (inactive)
DMS-273
  GI50: 26.6 µM (inactive)
MOLT-4
  GI50: 33.8 µM (inactive)
HT-29
  GI50: 68.7 µM (inactive)
LXFL 529
  GI50: 25.2 µM (inactive)
HCT-116
  GI50: 45.9 µM (inactive)
OVCAR-5
  GI50: 17.3 µM (inactive)
K562
  GI50: 28.5 µM (inactive)
A549
  GI50: 43.1 µM (inactive)
SF-539
  GI50: > 100 µM (inactive)
CCRF-CEM
  GI50: 41.2 µM (inactive)
OVCAR-8
  GI50: 66.5 µM (inactive)
CAKI-1
  GI50: 25.7 µM (inactive)

Source: ChEMBL document CHEMBL1201862, “PubChem BioAssay data set” (2004)
